Measurements: US6406708B1, “Therapeutic compositions” (Interhealth AB, priority 1998, dated 2002)

Conditions: 0.15% of sorbic acid in squalane/cyclodextrin composition

For `C/C=C/C=C/C(=O)O` [sorbic acid], the anti-acne effect was “does not give any anti-acne effect”.
